Measurements taken from patent US20100247629A1, “Method for drug loading in liposomes” (Yissum Research Development Company of the Hebrew …, priority 2003, published 2010).

Legend:
[1] = Solubility and precipitation of doxorubicin in ammonium salt solutions; format: physicochemical
Experimental: The higher release rate is a result of using glucuronate as the balancing anion. […] In addition, doxorubicin precipitates at less than 2 mM concentration in the presence of sulfate ions, while a much higher concentration of doxorubicin is required for precipitation to occur in the presence of glucuronate ions. Accordingly, when glucuronate is the balancing anion, more of the therapeutic agent is in a soluble form and therefore it is more available for release from the liposomes. Further, the permeability of glucuronate through the liposomal membranes is very low, possibly due to its low pKa, its bulkiness and/or polarity, making it very efficient for maintaining the ammonium ion gradient for loading of the therapeutic agents.

KB-V [2] = test: In vitro cytotoxicity (growth inhibition, methylene blue); format: cell-based, human; conditions: KB-V (doxorubicin-resistant); continuous exposure 72 hours
Experimental: (§1) M109-R and KB-V cell lines are doxorubicin-resistant sublines of M109-S and KB, respectively. The cells were exposed continuously to the drug formulation for 72 hours following the experimental details described by Horowitz, et al., Biochimica et Biophysica Acta, 1109:203-209 (1992) and also in Example 2.
(§2) Cells for each line were exposed continuously to drug for 72 hours. Other experimental details were as described by Horowitz et al., Biochem Biophys Acta, 1109(2):203 (1992). Briefly, 5×10^3 cells from exponentially growing cultures in 200 μL aliquots were plated onto 96-well flat-bottom microtiter plates. […] For each 10-fold increase in drug concentration, six drug concentration points were tested. Each test was performed in triplicate wells and in two parallel plates. The cells were treated continuously for 72 hours. The cultures were fixed by the addition of 50 μL 2.5% glutaraldehyde to each well for 10 minutes. The plates were washed three times with de-ionized water, once with 0.1 M borate buffer (pH 8.5) and then stained for 60 minutes with 100 μL methylene blue (1% in 0.1 M buffer borate, pH 8.5) at room temperature. The plates were rinsed in five baths of de-ionized water to remove non-cell bound dye and were then dried. The dye was extracted with 200 μL 0.1 M HCl for 60 min at 37° C. and the optical density was determined using a microplate spectrophotometer.
(§3) The growth rate was calculated by dividing the doubling times of drug-treated cells with those of the control cells.

C26 = test: as above; format: cell-based, human; conditions: continuous exposure 72 hours
Experimental: as §1, §2, §3

KB [3] = test: as above; format: cell-based, human; conditions: continuous exposure 72 hours
Experimental: as §1, §2, §3

KB-V [4] = test: In vitro uptake of doxorubicin into tumor cells; format: cell-based, human
Experimental: (§4) There is a greater drug accumulation in cells treated with lipo-dox-AG than in those treated with lipo-dox-AS.
(§5) Cellular accumulation of doxorubicin was assayed by a method similar to that described in Chambers, S. K. et al., Cancer Res., 49:6275-6279 (1989). […] At the end of the incubation, the cells were rinsed three times with PBS and the drug was extracted from the cells with 1 mL acidified isopropanol (0.075 M HCl in 90% isopropanol), for 20 hours at 4° C. Doxorubicin concentration was determined spectrofluorometrically using an excitation wavelength of 470 nm and an emission wavelength of 590 nm. The fluorescence intensity emitted was translated into doxorubicin-equivalents based on a doxorubicin standard curve, after readings of untreated background cells were subtracted.

KB [5] = test: In vitro uptake of doxorubicin into tumor cells; format: cell-based, human
Experimental: as §4, §5

M109-R [6] = test: In vitro cytotoxicity (growth inhibition, methylene blue); format: cell-based, mouse; conditions: M109-R (doxorubicin-resistant); continuous exposure 72 hours
Experimental: as §1
as §2, with “The plates were rinsed in five baths of de-ionized water to remove non-cell bound dye and were then dried.” left out
as §3

M109-S = test: as above; format: cell-based, mouse; conditions: continuous exposure 72 hours
Experimental: as §1
as §2, with “The plates were rinsed in five baths of de-ionized water to remove non-cell bound dye and were then dried.” left out
as §3

M109-R [7] = test: In vitro uptake of doxorubicin into tumor cells; format: cell-based, mouse; conditions: 24 exposure
Experimental: as §4, §5

C-26 cells = test: In vivo therapeutic activity, C-26 tumor survival; set-up: species or system mice; conditions: C-26 tumor i.p., 10 mg/kg i.v. five days after inoculation
From the text: Untreated (control) mice died quickly with a median survival of 13 days (not shown).
In another study, mice were inoculated i.p. with C-26 cells (10^6 cells).

COc1cccc2c1C(=O)c1c(O)c3c(c(O)c1C2=O)C[C@@](O)(C(=O)CO)C[C@@H]3O[C@H]1C[C@H](N)[C@H](O)[C@H](C)O1 [free doxorubicin, doxorubicin]
solubility in 250 mM ammonium glucuronate relative to 250 mM ammonium sulfate ([1]; 250 mM AG solution vs 250 mM AS solution): approximately 100 fold
concentration at which doxorubicin precipitates ([1]; in the presence of sulfate ions): less than 2 mM
IC50 (KB-V [2]): 690 nM
IC50 (C26): 960 nM
IC50 (KB [3]): 40 nM
Doxorubicin Uptake (KB-V [4]; 1 hr exposure): 311 (22) ng DOX/10^6 cells
Doxorubicin Uptake (KB-V [4]; 5 hr exposure): 931 (21) ng DOX/10^6 cells
Doxorubicin Uptake (KB [5]; 1 hr exposure): 426 (33) ng DOX/10^6 cells
Doxorubicin Uptake (KB [5]; 5 hr exposure): 937 (46) ng DOX/10^6 cells
Doxorubicin Uptake (KB [5]; 24 hr exposure): 840 (15) ng DOX/10^6 cells
IC50 (M109-R [6]): 2000 nM
IC50 (M109-S): 560 nM
Doxorubicin Uptake (M109-R [7]): 80 (3) ng DOX/10^6 cells
increase in mean survival time over control (C-26 cells): 4 days
mean survival time (C-26 cells): 17 days
